Measured values from patent US6432415B1, “Pharmaceutical gel and aerosol formulations and methods to administer the same to skin and mucosal surfaces” (Axrix Laboratories, Inc., priority 1999, dated 2002).
In brackets after ≈: the same amount, converted by molar mass.

Experiments:
Format in all cases: physicochemical
[1] = Solubility of Amlexanox in solvents and at different pH
Experimental: To illustrate the many aspects of the present invention, it is provided herein several Examples of formulations which comprise a specific not-very-soluble drug known as Amlexanox or 2-amino-7-(1-methylethyl)-5-oxo-5H-[1]benzopyrano-[2,3-b]-pyridine-3-carboxylic acid. Amlexanox is not very soluble in lower alkyl alcohols (0.58 mg/mL, in dehydrated ethanol) or water (0.005 mg/mL). However, solubility of Amlexanox increases with pH. […] Thus, at any given time, Amlexanox may be present in the formulation as a solution or suspension or both.

[2] = Solubility of Amlexanox in 95% ethanol with imidazole (visual observation); conditions: 200 mM imidazole vs no imidazole
Experimental: Amlexanox (4.8 mg to 20.5 mg) was added to seven glass scintillation vials. 95% Ethanol (in 5-100 uL aliquots) with various concentrations of imidazole (0-200 mM) was added to the vials containing Amlexanox. The total volume of 95% ethanol added to result in Amlexanox solubilization (by visual observation) was recorded.

[3] = Solubility of Propellant 152a in aqueous and ethanol/water solvents, with or without ethyl cellulose
Experimental: In one aspect, the propellant is 1,1-difluoroethane also known as Propellant 152a, commercially available under the trade mark Dymel®. Propellant 152a is slightly soluble in aqueous solvents (solubility of less than 1% by weight).
The inventors have experimented with ethanol as a cosolvent to be used in conjunction with Propellant 152a. When water is added to the ethanol/Propellant 152a mixture, the solubility of Propellant 152a decreases. […] This unexpected increase in solubility was not observed when hydroxyethyl cellulose or hydroxypropyl cellulose was used instead of ethyl cellulose.

Compound: CC(C)c1ccc2oc3nc(N)c(C(=O)O)cc3c(=O)c2c1 [Amlexanox, 2-amino-7-(1-methylethyl)-5-oxo-5H-[1]benzopyrano-[2,3-b]-pyridine-3-carboxylic acid]
- solubility ([1]; aqueous buffer, pH 3.0): 12 µg/mL (≈ 40.2 µM)
- solubility ([1]; in water): 5 µg/mL (≈ 16.8 µM)
- solubility ([1]; organic solvent or mixture, in dehydrated ethanol): 580 µg/mL (≈ 1940 µM)
- solubility ([1]; pH 5.96, aqueous buffer): 15300 µg/mL (≈ 51300 µM)
- solubility in 95% ethanol with 200 mM imidazole relative to absence of imidazole [2]: approximately 7.5 fold

Compound: CC(F)F [Propellant 152a, 1,1-difluoroethane]
- solubility of Propellant 152a ([3]; aqueous solvents): less than 1 % by weight
- solubility of Propellant 152a ([3]; ethyl cellulose about 0.7% to about 1.4%, ethanol/water (80:20)): 62-64%
- solubility of Propellant 152a ([3]; ethyl cellulose about 0.75% to about 10% added to ethanol or ethanol/water mixtures): 62 to 64%
- solubility of Propellant 152a ([3]; mixture of ethanol/water (80:20), no ethyl cellulose): about 49%
